Data reported in publication PMC12264551 (Molecular Pharmacology, 2025).

Experiments:
[1] = molecular target: T1, CRLR + RAMP1 (CGRP receptor) (Homo sapiens, UniProt O60894+Q16602); experiment: Live cell cAMP accumulation (GloSensor), COS-7 cells transfected with CRLR + RAMP1; format: cell-based; conditions: RAMP1, COS-7
T1 construct: RAMP plasmid gift of Dr Patrick Sexton; host or cells: COS-7

[2] = molecular target: T2, CRLR + RAMP2 (adrenomedullin 1 receptor) (Homo sapiens, UniProt O60895+Q16602); experiment: Live cell cAMP accumulation (GloSensor), COS-7 cells transfected with CRLR + RAMP2; format: cell-based; conditions: ATP […] + CGRP 10 nM, RAMP2, COS-7
T2 construct: RAMP plasmid gift of Dr Patrick Sexton; host or cells: COS-7

PAC1R = molecular target: T3, PAC1R (Homo sapiens, UniProt P41586); experiment: Live cell cAMP accumulation (GloSensor), COS-7 cells transfected with PAC1R; format: cell-based; conditions: ATP […] + PACAP 0.1 nM
T3 construct: host or cells: COS-7
T3 sequence (P41586 21-468): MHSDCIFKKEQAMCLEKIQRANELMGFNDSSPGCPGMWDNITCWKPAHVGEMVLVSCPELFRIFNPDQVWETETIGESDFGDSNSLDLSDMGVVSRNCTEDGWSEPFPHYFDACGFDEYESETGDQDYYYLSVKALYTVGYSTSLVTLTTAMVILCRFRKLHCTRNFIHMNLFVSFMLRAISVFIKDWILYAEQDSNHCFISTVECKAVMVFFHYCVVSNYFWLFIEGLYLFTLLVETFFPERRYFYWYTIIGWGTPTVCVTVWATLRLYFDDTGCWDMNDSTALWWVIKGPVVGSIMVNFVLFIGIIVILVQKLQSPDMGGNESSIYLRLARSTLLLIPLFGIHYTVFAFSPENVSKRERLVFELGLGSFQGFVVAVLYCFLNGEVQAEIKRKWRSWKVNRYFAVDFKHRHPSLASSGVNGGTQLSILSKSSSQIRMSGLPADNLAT

VPAC2R = molecular target: T4, VPAC2R (Homo sapiens, UniProt P41587); experiment: Live cell cAMP accumulation (GloSensor), COS-7 cells transfected with VPAC2R; format: cell-based
T4 construct: host or cells: COS-7
T4 sequence (P41587 24-438): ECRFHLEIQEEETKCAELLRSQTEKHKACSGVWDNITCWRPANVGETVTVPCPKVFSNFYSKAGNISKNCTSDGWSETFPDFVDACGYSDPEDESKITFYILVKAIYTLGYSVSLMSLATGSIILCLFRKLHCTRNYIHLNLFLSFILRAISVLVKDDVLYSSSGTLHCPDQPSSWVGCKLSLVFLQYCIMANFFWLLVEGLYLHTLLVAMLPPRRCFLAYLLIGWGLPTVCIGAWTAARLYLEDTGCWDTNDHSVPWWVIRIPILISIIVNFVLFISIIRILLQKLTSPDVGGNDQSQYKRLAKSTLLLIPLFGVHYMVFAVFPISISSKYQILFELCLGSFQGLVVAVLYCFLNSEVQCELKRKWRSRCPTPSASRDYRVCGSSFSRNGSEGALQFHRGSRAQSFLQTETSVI

PTH1R = conditions: ref Kim et al, 2018, cited from earlier work
From the text: Extracellular nucleotides are known for their ability to act as purinoceptor agonists ([Burnstock, 2007]).

VPAC1R [3] = molecular target: T5, VPAC1R (Homo sapiens, UniProt P32241); experiment: Live cell cAMP accumulation (GloSensor), COS-7 cells transfected with VPAC1R; format: cell-based; parameters: host or cells: COS-7; conditions: ATP […] + VIP 0.1 nM
T5 sequence (P32241 31-457): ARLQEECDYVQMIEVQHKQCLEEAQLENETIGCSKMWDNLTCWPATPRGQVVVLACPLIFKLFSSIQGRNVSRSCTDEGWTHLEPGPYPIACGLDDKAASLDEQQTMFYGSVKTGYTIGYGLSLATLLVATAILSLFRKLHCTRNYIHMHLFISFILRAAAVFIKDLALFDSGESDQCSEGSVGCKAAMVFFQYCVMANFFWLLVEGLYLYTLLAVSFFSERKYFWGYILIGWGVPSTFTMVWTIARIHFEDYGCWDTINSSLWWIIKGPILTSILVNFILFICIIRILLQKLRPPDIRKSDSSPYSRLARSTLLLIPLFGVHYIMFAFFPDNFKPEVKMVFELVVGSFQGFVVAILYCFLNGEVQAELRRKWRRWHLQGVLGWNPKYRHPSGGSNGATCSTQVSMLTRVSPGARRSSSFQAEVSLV

calcitonin receptor [4] = molecular target: T6, calcitonin receptor (Homo sapiens, UniProt P30988); experiment: Live cell cAMP accumulation (GloSensor), COS-7 cells transfected with calcitonin receptor; format: cell-based; parameters: host or cells: COS-7 (African monkey kidney) in A3; conditions: ATP […] + calcitonin 1 nM
T6 sequence (P30988 25-474): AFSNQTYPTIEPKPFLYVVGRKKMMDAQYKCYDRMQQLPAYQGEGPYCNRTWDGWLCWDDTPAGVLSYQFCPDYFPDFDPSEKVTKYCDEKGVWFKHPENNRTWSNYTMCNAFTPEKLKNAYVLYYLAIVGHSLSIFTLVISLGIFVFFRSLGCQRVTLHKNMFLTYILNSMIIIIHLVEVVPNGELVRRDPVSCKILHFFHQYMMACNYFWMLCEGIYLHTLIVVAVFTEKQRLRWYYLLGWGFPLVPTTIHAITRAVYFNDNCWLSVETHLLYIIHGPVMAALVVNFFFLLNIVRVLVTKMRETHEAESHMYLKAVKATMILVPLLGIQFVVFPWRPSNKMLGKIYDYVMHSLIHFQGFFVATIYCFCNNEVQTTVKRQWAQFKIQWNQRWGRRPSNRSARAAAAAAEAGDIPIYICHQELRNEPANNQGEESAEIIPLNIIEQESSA

VPAC1R [5] = molecular target: T5, VPAC1R; experiment: Live cell cAMP accumulation (GloSensor), SaOS-2 cells with endogenous VPAC1R; format: cell-based; parameters: SaOS-2 cells endogenously express VPAC1R; endogenous in cells; host or cells: SaOS-2; conditions: ATP […] + VIP 1 nM
calcitonin receptor [6] = molecular target: T6, calcitonin receptor; experiment: Live cell cAMP accumulation (GloSensor), UMR-106 cells transfected with calcitonin receptor; format: cell-based; parameters: host or cells: UMR-106 (rat osteoblast-like) in A1; COS-7 (African monkey kidney) in A3; conditions: ATP […] + calcitonin 1 nM
class B GPCRs = experiment: Signaling of class B GPCRs tested (summary over receptors); format: cell-based; conditions: CMP in place of ATP
Protocol: Cells were treated with IBMX (200–500 μM) and were further incubated for 20 minutes at room temperature. […] The emitted luminescence was measured at room temperature with a 1-second integration time at 1.5-minute intervals for a total of 45 minutes.
Data shown are means ± SEM.
To assess the time-to-maximum-slope (ie, “lag time”) for each time-course curve, we determined the time elapsed from the addition of agonist (time 0) to the first data point of the maximum slope. This procedure is illustrated in Supplemental Fig. 1.

T1 sequence (Q16602 23-461): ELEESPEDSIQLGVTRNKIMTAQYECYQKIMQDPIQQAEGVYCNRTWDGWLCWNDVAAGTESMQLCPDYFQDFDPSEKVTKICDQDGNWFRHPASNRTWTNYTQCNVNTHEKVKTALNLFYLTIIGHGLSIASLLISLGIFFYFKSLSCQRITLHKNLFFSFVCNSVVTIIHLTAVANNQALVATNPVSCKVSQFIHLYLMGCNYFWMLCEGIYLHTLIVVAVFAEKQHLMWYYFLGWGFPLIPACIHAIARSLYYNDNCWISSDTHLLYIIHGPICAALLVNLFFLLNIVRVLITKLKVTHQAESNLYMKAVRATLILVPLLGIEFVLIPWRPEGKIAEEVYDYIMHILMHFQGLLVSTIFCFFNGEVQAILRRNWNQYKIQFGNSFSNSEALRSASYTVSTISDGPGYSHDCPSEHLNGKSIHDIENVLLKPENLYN
T1 sequence (O60894 27-148): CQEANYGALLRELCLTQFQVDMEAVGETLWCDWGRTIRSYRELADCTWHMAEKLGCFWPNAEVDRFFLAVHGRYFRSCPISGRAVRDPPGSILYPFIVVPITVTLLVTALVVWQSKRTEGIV
T2 sequence (Q16602 23-461): as the sequence (Q16602 23-461) above
T2 sequence (O60895 43-175): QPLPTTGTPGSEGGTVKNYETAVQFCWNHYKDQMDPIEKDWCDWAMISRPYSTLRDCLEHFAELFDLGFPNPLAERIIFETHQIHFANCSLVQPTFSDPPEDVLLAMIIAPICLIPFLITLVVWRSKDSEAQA

SMILES: Nc1ncnc2c1ncn2[C@@H]1O[C@H](COP(=O)(O)OP(=O)(O)OP(=O)(O)O)[C@@H](O)[C@H]1O [ATP, Adenosine 5'-triphosphate]
- Hill coefficient / slope factor ([1]; ATP + CGRP 10 nM, 4-parameter fit, n = 3): 3.2
- effect on CGRP-induced cAMP accumulation ([1]; ATP […] + CGRP 10 nM): markedly enhanced
- EC50 ([1]; EC50 of ATP for potentiation of CGRP signaling, ATP + CGRP 10 nM, 4-parameter fit, n = 3): 500 µM
- effect on CGRP-induced cAMP accumulation [2]: markedly enhanced
- effect on PACAP-induced cAMP accumulation (PAC1R): markedly enhanced
- effect on VIP-induced cAMP accumulation (VPAC2R; ATP […] + VIP 0.1 nM): markedly enhanced
- effect on PTH1R signaling in absence of added agonist (PTH1R; extracellular ATP alone): no effect on PTH1R signaling in the absence of added agonist
- effect on agonist-induced cAMP elevation and β-arrestin recruitment (PTH1R; extracellular ATP with PTH1R agonist): strongly enhance
- effect on VIP-induced cAMP accumulation (VPAC1R [3]): markedly enhanced
- effect on rate of calcitonin-induced cAMP accumulation (calcitonin receptor [4]): markedly enhanced
- effect on VIP-induced cAMP accumulation (VPAC1R [5]): enhanced VIP-induced cAMP accumulation
- effect on calcitonin-induced cAMP accumulation (calcitonin receptor [6]): markedly enhanced

SMILES: Nc1ccn([C@@H]2O[C@H](COP(=O)(O)O)[C@@H](O)[C@H]2O)c(=O)n1 [CMP, cytidine 5'-monophosphate]
- enhancing effect of ATP (class B GPCRs): mimicked

SMILES: CC[C@H](C)[C@H](NC(=O)[C@H](CO)NC(=O)[C@H](CC(N)=O)NC(=O)[C@H](CC(C)C)NC(=O)[C@H](Cc1ccc(O)cc1)NC(=O)[C@H](CCCCN)NC(=O)[C@H](CCCCN)NC(=O)[C@@H](NC(=O)[C@H](C)NC(=O)[C@H](CCSC)NC(=O)[C@H](CCC(N)=O)NC(=O)[C@H](CCCCN)NC(=O)[C@H](CCCNC(=N)N)NC(=O)[C@H](CC(C)C)NC(=O)[C@H](CCCNC(=N)N)NC(=O)[C@@H](NC(=O)[C@H](Cc1ccc(O)cc1)NC(=O)[C@H](CC(N)=O)NC(=O)[C@H](CC(=O)O)NC(=O)[C@@H](NC(=O)[C@H](Cc1ccccc1)NC(=O)[C@@H](NC(=O)[C@H](C)NC(=O)[C@H](CC(=O)O)NC(=O)[C@H](CO)NC(=O)[C@@H](N)Cc1c[nH]cn1)C(C)C)[C@@H](C)O)[C@@H](C)O)C(C)C)C(=O)N[C@@H](CC(C)C)C(=O)N[C@@H](CC(N)=O)C(N)=O [VIP, vasoactive intestinal peptide]
- Normalized Maximum (VPAC2R; VIP + vehicle, Fig. 6H, VPAC2R, fraction of greatest slope, ± SEM, n = 3-5): 0.94 ± 0.01
